Measurements published in patent publication US8546377B2 (AbbVie Inc., priority 2009, dated 2013).
Like-named read-outs stand apart in the source and are kept apart here.

Legend:
[1] = molecular target: T1, 5HT2B receptors (Homo sapiens, UniProt P41595); assay: Human 5-HT2B functional assay in CHO-K1 cells (calcium flux, FLIPR); format: cell-based
T1 construct: expressed in transfected cells; host or cells: CHO-K1 cells
Experimental: (§1) (iii) Human 5-HT2C and 5-HT2B Functional Assay in CHO-K1 Cells
(§2) CHO-K1 cells over-expressing 5HT2C or 5HT2B receptors were grown in 1272 cm^2 flasks to 70-80% confluency in UltraCHO media supplemented with 1% dialyzed fetal bovine serum (FBS), 250 μg/mL zeocin, 100 U/mL penicillin/streptomycin, and 400 μg/mL geneticin. The cells were dissociated from the flasks using 0.05% trypsin, resuspended in freezing media and stored in liquid nitrogen until use. Calcium flux experiments were done using frozen cells. The cells were diluted in media containing 1% dialyzed FBS and 100 U/mL penicillin/streptomycin and plated into 384-well poly-D-Lysine coated plates (15,000 cells/well). Then the plates were incubated overnight in a cell incubator at 37° C., 5% CO2. On the next day, the growth media was replaced with media without FBS and further incubated overnight. On day three, the changes in intracellular Ca^2+ were determined using calcium sensitive fluorescent dye, Ca4 (MDS Analytical Technologies, Sunnyvale, Calif.) by loading 15 μL of diluted dye with 2.5 mM probenecid into the cells containing media and incubated at room temperature for 60 minutes in dark.
(§3) Fluorescence measurements were read at 25° C. at an excitation wavelength of 480 nm and an emission wavelength of 530 nm in FLIPR (MDS). Baseline fluorescence was measured for the first 10 seconds and then 15 μL of 4× concentrations of serotonin/test compounds was added to the cell plate. The fluorescence intensity was captured every second for the first 1 minute followed by every 5 seconds for an additional 2 minutes. The increase in fluorescent response was determined and was normalized to the response of serotonin. The concentration response of compounds was done from a starting concentration of 10 μM, 1:10 dilution across 6 wells with a final dimethyl sulfoxide concentration of 0.2% and was fitted using a 4-parameter logistic equation. The concentration at which a compound exerts half its maximal effect was named as ‘effective concentration 50’ or ‘EC50’.
(§4) Emax is the maximum functional response or efficacy expressed as a percentage relative to the effect of serotonin.

[2] = molecular target: T2, 5HT2C receptors (Homo sapiens, UniProt P28335); assay: Human 5-HT2C functional assay in CHO-K1 cells (calcium flux, FLIPR); format: cell-based; design: expressed in transfected cells; host or cells: CHO-K1 cells; details: for Emax: percentage relative to the effect of serotonin
T2 sequence (P28335 33-458): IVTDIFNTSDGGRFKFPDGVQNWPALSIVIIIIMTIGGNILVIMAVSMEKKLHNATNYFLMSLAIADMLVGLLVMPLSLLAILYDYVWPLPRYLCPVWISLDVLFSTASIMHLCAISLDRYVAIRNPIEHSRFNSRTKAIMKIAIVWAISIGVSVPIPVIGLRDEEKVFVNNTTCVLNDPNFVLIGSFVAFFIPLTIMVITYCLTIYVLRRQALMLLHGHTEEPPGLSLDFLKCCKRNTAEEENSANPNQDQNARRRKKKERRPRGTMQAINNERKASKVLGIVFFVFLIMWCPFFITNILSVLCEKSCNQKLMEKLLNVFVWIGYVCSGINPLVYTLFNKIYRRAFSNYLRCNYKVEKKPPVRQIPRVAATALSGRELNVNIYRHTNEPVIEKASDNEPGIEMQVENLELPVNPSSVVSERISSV
Experimental: as §1, §2, §3, §4

[3] = CHO-K1, read-out: Emax (%), 5-HT2B Agonist Activity
[4] = CHO-K1, read-out: Emax (%), 5-HT2c Agonist Activity, CHO-K1 cells
[5] = CHO-K1 cells over-expressing 5HT2B, calcium flux, read-out: EC50 (μM), 5-HT2B Agonist Activity
[6] = CHO-K1 cells over-expressing 5HT2C, calcium flux, read-out: EC50 (μM), 5-HT2c Agonist Activity
[7] = CHO-K1 cells, read-out: Emax (%), 5-HT2c Agonist Activity

T1 sequence (P41595 whole entry): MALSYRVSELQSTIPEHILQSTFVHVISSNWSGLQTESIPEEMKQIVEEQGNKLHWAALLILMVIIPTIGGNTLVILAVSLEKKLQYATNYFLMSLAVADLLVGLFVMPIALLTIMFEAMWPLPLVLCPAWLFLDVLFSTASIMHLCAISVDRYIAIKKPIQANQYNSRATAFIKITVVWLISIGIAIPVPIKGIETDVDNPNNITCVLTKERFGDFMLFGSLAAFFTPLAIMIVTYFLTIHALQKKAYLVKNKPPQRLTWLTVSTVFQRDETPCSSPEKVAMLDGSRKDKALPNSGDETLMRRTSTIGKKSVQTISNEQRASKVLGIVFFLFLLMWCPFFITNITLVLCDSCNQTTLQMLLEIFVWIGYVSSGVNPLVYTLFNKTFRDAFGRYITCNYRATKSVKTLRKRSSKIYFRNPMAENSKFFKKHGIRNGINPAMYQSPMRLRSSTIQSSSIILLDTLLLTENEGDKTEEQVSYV

| SMILES | EC50 [1] [µM] | Emax [1, 3] [%] | EC50 [2] [µM] | Emax [2, 4] [%] | EC50 [1, 5] [µM] | Emax ([1]; CHO-K1 cells, percentage relative to the effect of serotonin, read-out: Emax (%), 5-HT2B Agonist Activity) [%] | EC50 [2, 6] [µM] | Emax [2, 7] [%] |
| --- | --- | --- | --- | --- | --- | --- | --- | --- |
| O=C1CC2CNCCN2c2cc(-c3ccccn3)ccc2N1 (stereo not shown) [Example 71, 10-(pyridin-2-yl)-1,2,3,4,4a,5-hexahydropyrazino[1,2-a][1,5]benzodiazepin-6(7H)-one] | 0.02 | 100 | 0.002 | > 120 |  |  |  |  |
| O=C1CC2CNCCN2c2cc(-c3ccsc3)ccc2N1 (stereo not shown) [Example 72, 10-(3-thienyl)-1,2,3,4,4a,5-hexahydropyrazino[1,2-a][1,5]benzodiazepin-6(7H)-one] |  |  |  |  | 2 | 20 | 0.07 | > 120 |
| O=C1CC2CNCCN2c2cc(-c3cccc(-n4cccn4)c3)ccc2N1 (stereo not shown) [Example 73, 10-[3-(1H-pyrazol-1-yl)phenyl]-1,2,3,4,4a,5-hexahydropyrazino[1,2-a][1,5]benzodiazepin-6(7H)-one] |  |  |  |  | > 10 |  | 0.03 | 110 |
| O=C1CC2CNCCN2c2cc(-c3ccc(F)cc3)ccc2N1 (stereo not shown) [Example 74, 10-(4-fluorophenyl)-1,2,3,4,4a,5-hexahydropyrazino[1,2-a][1,5]benzodiazepin-6(7H)-one] |  |  |  |  | > 10 |  | 0.07 | 100 |
| O=C1CC2CNCCN2c2cc(-c3cc4ccccc4s3)ccc2N1 (stereo not shown) [Example 75, 10-(1-benzothiophen-2-yl)-1,2,3,4,4a,5-hexahydropyrazino[1,2-a][1,5]benzodiazepin-6(7H)-one] |  |  |  |  | > 10 |  | 1 | 80 |
| CCN1C(=O)CC2CNCCN2c2ccc(Cl)cc21 (stereo not shown) [Example 77, 9-chloro-7-ethyl-1,2,3,4,4a,5-hexahydropyrazino[1,2-a][1,5]-benzodiazepin-6(7H)-one] |  |  |  |  | > 10 |  | 0.2 | 100 |
| CCN1C(=O)CC2CN(C)CCN2c2ccc(Cl)cc21 (stereo not shown) [Example 78, 9-chloro-7-ethyl-3-methyl-1,2,3,4,4a,5-hexahydropyrazino[1,2-a][1,5]benzodiazepin-6(7H)-one] |  |  |  |  | > 10 |  | 1 | 50 |
| CN1CCN2c3cccc(F)c3NC(=O)CC2C1 (stereo not shown) [Example 79, 8-fluoro-3-methyl-1,2,3,4,4a,5-hexahydropyrazino[1,2-a][1,5]benzodiazepin-6(7H)-one] | > 10 |  | 0.03 | 100 |  |  |  |  |
| CN1C(=O)CC2CNCCN2c2ccc(Cl)cc21 (stereo not shown) [Example 80, 9-chloro-7-methyl-1,2,3,4,4a,5-hexahydropyrazino[1,2-a][1,5]benzodiazepin-6(7H)-one] |  |  |  | 100 | > 10 |  | 0.6 |  |
| CN1CCC2CNCCN2c2ccc(Cl)cc21 (stereo not shown) [Example 81, 9-chloro-7-methyl-1,2,3,4,4a,5,6,7-octahydropyrazino[1,2-a][1,5]benzodiazepine] | 1 | 20 | 0.05 | > 120 |  |  |  |  |
| CCN1CCC2CN(C)CCN2c2ccc(Cl)cc21 (stereo not shown) [Example 82, 9-chloro-7-ethyl-3-methyl-1,2,3,4,4a,5,6,7-octahydropyrazino[1,2-a][1,5]benzodiazepine] |  |  |  |  | > 10 |  | 0.6 | 90 |
| O=C1C[C@@H]2CNCCN2c2cccc(F)c2N1 [Example 83, (4aR)-8-fluoro-1,2,3,4,4a,5-hexahydropyrazino[1,2-a][1,5]benzodiazepin-6(7H)-one] | 1.05 | 27 | 0.763 | > 120 |  |  |  |  |
| CN1CCN2c3cc(Cl)ccc3NC(=O)C[C@H]2C1 [Example 84, (4aS)-10-chloro-3-methyl-1,2,3,4,4a,5-hexahydropyrazino[1,2-a][1,5]benzodiazepin-6(7H)-one] | > 10 |  | 0.067 | 90 |  |  |  |  |
| O=C1C[C@H]2CNCCN2c2cccc(F)c2N1 [Example 85, (4aS)-8-fluoro-1,2,3,4,4a,5-hexahydropyrazino[1,2-a][1,5]benzodiazepin-6(7H)-one] | > 10 |  | 0.0051 | > 120 |  |  |  |  |
| O=C1C[C@H]2CNCCN2c2c(F)cccc2N1 [Example 86, (4aS)-11-fluoro-1,2,3,4,4a,5-hexahydropyrazino[1,2-a][1,5]benzodiazepin-6(7H)-one] | > 10 |  | 0.008 | > 120 |  |  |  |  |
| O=C1C[C@@H]2CNCCN2c2c(F)cccc2N1 [Example 87, (4aR)-11-fluoro-1,2,3,4,4a,5-hexahydropyrazino[1,2-a][1,5]benzodiazepin-6(7H)-one] | > 10 |  | 0.9 | > 120 |  |  |  |  |
| CN1CCN2c3cccc(F)c3NC(=O)C[C@H]2C1 [Example 88, (4aS)-8-fluoro-3-methyl-1,2,3,4,4a,5-hexahydropyrazino[1,2-a][1,5]benzodiazepin-6(7H)-one] | > 10 |  | 0.03 | > 120 |  |  |  |  |
| Cc1cccc(-c2ccc3c(c2)N2CCNCC2CC(=O)N3)c1 (stereo not shown) [Example 89, 10-(3-methylphenyl)-1,2,3,4,4a,5-hexahydropyrazino[1,2-a][1,5]benzodiazepin-6(7H)-one] |  |  |  |  | > 10 |  | 0.07 | > 120 |
| O=C1CC2CNCCN2c2cc(-c3cccc(C(F)(F)F)c3)ccc2N1 (stereo not shown) [Example 90, 10-[3-(trifluoromethyl)phenyl]-1,2,3,4,4a,5-hexahydropyrazino[1,2-a][1,5]benzodiazepin-6(7H)-one] |  |  |  |  | > 10 |  | 0.02 | > 120 |
| CCc1cccc(-c2ccc3c(c2)N2CCNCC2CC(=O)N3)c1 (stereo not shown) [Example 91, 10-(3-ethylphenyl)-1,2,3,4,4a,5-hexahydropyrazino[1,2-a][1,5]-benzodiazepin-6(7H)-one] |  |  |  |  | > 10 |  | 0.01 | > 120 |
| CC(C)c1cccc(-c2ccc3c(c2)N2CCNCC2CC(=O)N3)c1 (stereo not shown) [Example 92, 10-(3-isopropylphenyl)-1,2,3,4,4a,5-hexahydropyrazino[1,2-a][1,5]benzodiazepin-6(7H)-one] |  |  |  |  | > 10 |  | 0.02 | > 120 |
| O=C1CC2CNCCN2c2cc(-c3cccc(OC(F)(F)F)c3)ccc2N1 (stereo not shown) [Example 93, 10-[3-(trifluoromethoxy)phenyl]-1,2,3,4,4a,5-hexahydropyrazino[1,2-a][1,5]benzodiazepin-6(7H)-one] |  |  |  |  | > 10 |  | 0.007 | > 120 |
| CC(C)Oc1cccc(-c2ccc3c(c2)N2CCNCC2CC(=O)N3)c1 (stereo not shown) [Example 94, 10-(3-isopropoxyphenyl)-1,2,3,4,4a,5-hexahydropyrazino[1,2-a][1,5]benzodiazepin-6(7H)-one] |  |  |  |  | > 10 |  | 0.008 | > 120 |
| O=C1CC2CNCCN2c2cc(-c3cccc(OCc4ccccc4)c3)ccc2N1 (stereo not shown) [Example 95, 10-[3-(benzyloxy)phenyl]-1,2,3,4,4a,5-hexahydropyrazino[1,2-a][1,5]benzodiazepin-6(7H)-one] |  |  |  |  | > 10 |  | 0.02 | > 120 |
| CC(C)COc1cccc(-c2ccc3c(c2)N2CCNCC2CC(=O)N3)c1 (stereo not shown) [Example 96, 10-(3-isobutoxyphenyl)-1,2,3,4,4a,5-hexahydropyrazino[1,2-a][1,5]benzodiazepin-6(7H)-one] |  |  |  |  | > 10 |  | 0.02 | > 120 |
| O=C1CC2CNCCN2c2cccc(Cl)c2N1 (stereo not shown) [Example 110, 8-chloro-1,2,3,4,4a,5-hexahydropyrazino[1,2-a][1,5]benzodiazepin-6(7H)-one] | > 10 |  | 0.005 | > 120 |  |  |  |  |
